# Patent US20150168379A1, “METHOD OF IDENTIFYING AND SCREENING DRUG CANDIDATE FOR PREVENTING AND/OR TREATING ISCHEMIC MYOCARDIAL DISEASE” (Macau University of Science and Technology, priority 2013, published 2015)
# “Also recorded” adds a separate entry of the source.
# Assays:
# H9C2 cell line [1] = assay: Survival rate of myocardial cells under hypoxia and reoxygenation (MTT); assay type: cell-based; details: H9C2, pre-treated one hour before hypoxia, FIG. 2/3
# Method: (§1) Myocardial cell lines, H9C2 and HL-1 were respectively seeded into culture dishes. KRB (Krebs-Ringer Bicarbonate buffer) solution replaced normal DMEM medium without the addition of serum. Cells were immediately placed in adjustable hypoxia box (Billups-Rothenberg) connected with gas flowmeter (rate of flow: 25L/min), in which the partial pressure of oxygen in the box was made to decrease from 20 kPa to 0 kPa within one minute. Hypoxia box was placed in a regular incubator for different incubation periods to create hypoxia conditions. […]
# Seven components of protopanaxatriol-type ginsenosides, namely Re, Rf, Rg1, 20(S)-Rg2, 20(R)-Rg2, 20(S)-Rh1 and 20(R)-Rh1, were used to pre-treat myocardial cells. […] The effects of each component on survival, mitochondrial respiration, morphology, and mitochondrial function and movement of myocardial cells were analyzed, and the results thereof were used in candidate agent selection. […]
# Optical density (OD) of cells was measured at wavelength of 570 nm by multiple-well plate spectrophotometer. Survival rate of the cells incubated under normal condition was set as 100%, and the survival rate of the blank control group was measured simultaneously as baseline for background subtraction. […]
# H9C2 cell line [2] = assay: Apoptosis rate of myocardial cells under hypoxia and reoxygenation by flow cytometry; assay type: cell-based; details: 3-hour hypoxia and 3-hour reoxygenation
# Method: as §1
# (§2) Seven components of protopanaxatriol-type ginsenosides, namely Re, Rf, Rg1, 20(S)-Rg2, 20(R)-Rg2, 20(S)-Rh1 and 20(R)-Rh1, were used to pre-treat myocardial cells. […] The effects of each component on survival, mitochondrial respiration, morphology, and mitochondrial function and movement of myocardial cells were analyzed, and the results thereof were used in candidate agent selection.
# (§3) Membrane potential of mitochondria, apoptosis rate, ROS release and cell cytotoxicity of myocardial cells were analyzed by flow cytometry. […] Fluorescence intensity of cells were analyzed by flow cytometry (each sample contains more than 10,000 cells). Cell fluorescence image was analyzed with fluorescence intensity of Rh123 as x-axis and fluorescence intensity of PI as y-axis. […]
# H9C2 cell line [3] = assay: Mitochondrial membrane potential changes by flow cytometer (JC-1); assay type: cell-based
# Method: Myocardial cell lines, H9C2 and HL-1 were respectively seeded into culture dishes. KRB (Krebs-Ringer Bicarbonate buffer) solution replaced normal DMEM medium without the addition of serum. Cells were immediately placed in adjustable hypoxia box (Billups-Rothenberg) connected with gas flowmeter (rate of flow: 25L/min), in which the partial pressure of oxygen in the box was made to decrease from 20 kPa to 0 kPa within one minute. Hypoxia box was placed in a regular incubator for different incubation periods to create hypoxia conditions. Hypoxia box was then opened and the medium was replaced with normal medium containing serum, followed by normal incubation at 37° C. for the time periods corresponding to those in the hypoxia conditions in order to create re-oxygenation conditions.
# Seven components of protopanaxatriol-type ginsenosides, namely Re, Rf, Rg1, 20(S)-Rg2, 20(R)-Rg2, 20(S)-Rh1 and 20(R)-Rh1, were used to pre-treat myocardial cells. Each component was dissolved with normal medium and DMSO as co-solvent and used to pre-treat cells one hour before hypoxia. Subsequently, medium was replaced with hypoxia medium. The effects of each component on survival, mitochondrial respiration, morphology, and mitochondrial function and movement of myocardial cells were analyzed, and the results thereof were used in candidate agent selection.
# Membrane potential of mitochondria, apoptosis rate, ROS release and cell cytotoxicity of myocardial cells were analyzed by flow cytometry. Upon pre-treatment of cells in different groups with Rg1, Sil (Sildenafil, the positive control drug), DOX (Doxorubicin, a cardiac toxic chemical which can induce H/R damage in myocardial cells) or FCCP (Carbonyl cyanide 4-(trifluoromethoxy) phenylhydrazone), the cells were then treated with hypoxia and reoxygenation conditions, in which the duration of each condition was 3 hours. 1 ml PBS buffer was added into culture dish with mixing. […] Fluorescence intensity of cells were analyzed by flow cytometry (each sample contains more than 10,000 cells). […]
# Mitofusin 2 (Mfn2) = biological target: T1, Mitofusin 2 (Mfn2) (Mus musculus, UniProt Q80U63); assay: Binding with mitofusin-2 in myocardial cells under hypoxia and reoxygenation (western blotting); details: FIG. 9
# T1 construct: endogenous in cells; host or cells: myocardial cells under hypoxia and reoxygenation (method text: total protein from mouse myocardial infarction tissue)
# T1 sequence (Q80U63 1-757): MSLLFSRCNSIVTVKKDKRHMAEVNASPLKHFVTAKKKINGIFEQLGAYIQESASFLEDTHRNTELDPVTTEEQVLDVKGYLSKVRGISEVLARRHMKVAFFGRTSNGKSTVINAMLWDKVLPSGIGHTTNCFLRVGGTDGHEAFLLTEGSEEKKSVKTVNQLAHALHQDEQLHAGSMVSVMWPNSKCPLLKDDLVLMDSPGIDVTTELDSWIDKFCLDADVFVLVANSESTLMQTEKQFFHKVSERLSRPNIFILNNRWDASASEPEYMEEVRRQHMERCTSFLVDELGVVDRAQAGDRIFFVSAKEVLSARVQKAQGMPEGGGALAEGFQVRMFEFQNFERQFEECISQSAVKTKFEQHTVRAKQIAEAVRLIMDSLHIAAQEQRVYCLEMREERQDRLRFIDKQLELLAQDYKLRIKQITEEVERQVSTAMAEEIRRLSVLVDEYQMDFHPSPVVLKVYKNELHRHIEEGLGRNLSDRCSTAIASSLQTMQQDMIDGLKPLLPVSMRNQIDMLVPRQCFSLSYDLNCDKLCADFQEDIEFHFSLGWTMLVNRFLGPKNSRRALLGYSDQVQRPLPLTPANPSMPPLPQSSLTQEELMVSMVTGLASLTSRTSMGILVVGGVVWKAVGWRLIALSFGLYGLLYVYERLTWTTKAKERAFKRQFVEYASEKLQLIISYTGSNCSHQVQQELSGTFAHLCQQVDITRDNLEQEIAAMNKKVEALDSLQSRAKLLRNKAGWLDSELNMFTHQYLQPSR
# H9C2 cell line [4] = assay: Cell cytotoxicity of myocardial cells under hypoxia and reoxygenation by flow cytometry; assay type: cell-based; details: pretreated, FIG. 5
# Method: as §1, §2, §3
# [5] = system: bal-2, procaspase-3, procaspase-9, Akt, and Erk in myocardial cells; assay: Expression levels of proteins of the mitochondrial-induced apoptosis pathway by western blotting; assay type: cell-based; details: 100 μM
# H9C2 cell line [6] = assay: ROS release (DCFDA, flow cytometer); assay type: cell-based
# Method: Cells were harvested and a single cell suspension was produced by gently pipetting up and down suspension cells or by fully detaching adherent cells. Cells in culture media were stained with 20 μM DCFDA and incubated for 30 minutes at 37° C. After staining, cells were treated with Rg1, DOX or Sil. Cells were gently pipetted to produce single cell suspension. Cells were then analyzed by flow cytometer in which forward and side scatter gates were established to exclude debris and cellular aggregates from the analysis. DCF was excited by the 488 nm laser and detected at 535 nm (typically FL1). 10,000 cells were analyzed per experimental condition. The whole study was repeated 3 times.
# [7] = 100 μM, compared with the control group
# [8] = 200 μM, compared with the control group
smiles,measurement,setting,value
CC(C)=CCC[C@](C)(O[C@@H]1O[C@H](CO)[C@@H](O)[C@H](O)[C@H]1O)[C@H]1CC[C@]2(C)[C@@H]1[C@H](O)C[C@@H]1[C@@]3(C)CC[C@H](O)C(C)(C)[C@@H]3[C@@H](O[C@@H]3O[C@H](CO)[C@@H](O)[C@H](O)[C@H]3O)C[C@]12C [Rg1],Survival rate of myocardial cells,H9C2 cell line [1],capable of increasing survival rate
same,Apoptosis rate of myocardial cells,H9C2 cell line [2]; [7],significantly inhibit apoptosis
same,Apoptosis rate of myocardial cells,H9C2 cell line [2]; 200 μM,can decrease apoptosis rate; also recorded: significantly inhibit apoptosis
same,Mitochondrial membrane potential changes,H9C2 cell line [3]; [7],significantly reduce the decrease of mitochondrial membrane potential changes
same,Mitochondrial membrane potential changes,H9C2 cell line [3]; [8],significantly reduce the decrease of mitochondrial membrane potential changes
same,Mitochondrial membrane potential changes,"H9C2 cell line [3]; JC-1, hypoxia and reoxygenation, concentration not given, FIG. 6",can inhibit the decrease of mitochondrial membrane potential changes
same,Binding with Mitofusin 2 (Mfn2) in mitochondria,Mitofusin 2 (Mfn2),binding with Mitofusin 2 (Mfn2)
same,Cytotoxicity of myocardial cells,H9C2 cell line [4],can decrease the cytotoxicity
same,Protection for myocardial cells induced by hypoxia and reoxygenation,[5],significant protection
same,ROS release,H9C2 cell line [6]; [7],significantly reduce the release of ROS
same,ROS release,H9C2 cell line [6]; [8],significantly reduce the release of ROS
same,ROS release,"H9C2 cell line [6]; concentration not given, FIG. 7",can decrease the release of ROS
